These results are taken from ChEMBL document CHEMBL1201862, “PubChem BioAssay data set” (2004).

“And” between values parts separate entries of the source, which are not always exact repeats. Equal entries are not always repeated.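 In this assay, cells in 96-well plates receive the compound at five concentrations for 48 hours. Endpoints are linearly interpolated between the surrounding concentrations. GI50 marks 50% less growth.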 The source made the active and inactive calls. Cut-off read from the data, not from the text of the source: active = GI50 up to about 1.1 µM and inactive = higher. Bounds are passed on as bounds.

Holding throughout (experiment): NCI-60 cell line screen, 48 h
The test system of assay [1] is IGROV-1.
The test system of assay [2] is OVCAR-5.
Assay [3] relates to HT-29.
Assay [4] has as its system HCC 2998.
In assay [5] the test system is NCI-H522.
Assay [6] deals with MCF7.
Assay [7] deals with HCT-15.
Assay [8] relates to NCI-H23.
For assay [9], the system named is SK-MEL-28.
The subject of assay [10] is MOLT-4.
The test system of assay [11] is HOP-92.
The test system of assay [12] is M14.
In assay [13] the test system is COLO 205.
Assay [14] deals with EKVX.
Assay [15] has as its system U-251.
Assay [16] concerns RPMI-8226.
The subject of assay [17] is UACC-62.
Assay [18] relates to NCI-H460.
The subject of assay [19] is UO-31.
Assay [20] deals with SF-539.

Regarding `COc1ccc2c3c1OC1C(F)C=CC4(O)C(C2)NCCC314` (stereo not drawn), the GI50 in assay [1] is 4.81 µM (inactive); in [2], 3.2 µM (inactive); in assay [3] it was 2.54 µM (inactive); in [4], 3.18 µM (inactive); in assay [5] it was 0.407 µM (active); in assay [6] it was 1.69 µM (inactive). For the same molecule, the GI50 in [7] was 2.37 µM; in assay [8] it was 1.92 µM (inactive); in assay [9], 3.07 µM (inactive); in [10], 0.887 µM (active); in assay [11] it was 2.87 µM (inactive); in assay [12], 1.65 µM (inactive). The GI50 in [13] was 1.44 µM (inactive); in assay [14], 2.49 µM (inactive); in assay [15], 2.2 µM (inactive); in assay [16], 0.834 µM (active); in assay [17], 3.37 µM (inactive); in [18], 4.97 µM (inactive). In addition, the GI50 in assay [19] was 1.55 µM (inactive).

Regarding `C[C@]12CC[C@@H]3c4ccc(O)cc4CC[C@H]3[C@@H]1C/C(=C\c1ccncc1)C2=O`, the GI50 in assay [1] is 15.1 µM (inactive); in assay [2] it was 27.5 µM (inactive); in assay [3], 19.3 µM (inactive); in assay [4] it was 30.6 µM (inactive); in [6] it was 12 µM (inactive); in assay [7], 7.29 µM. For the same molecule, the GI50 is 29 µM (inactive) in [8]; 64.3 µM (inactive) in [9]; 4.71 µM (inactive) in [10]; 23.1 µM (inactive) in [11]; 10.9 µM (inactive) in [20]; 20.4 µM (inactive) in [12]. Besides, the GI50 was 29.7 µM (inactive) in [13]; 28.1 µM (inactive) in assay [14]; 16.1 µM (inactive) in assay [15]; 8.53 µM (inactive) in [16]; 10.3 µM (inactive) in assay [17]; 9.4 µM (inactive) in [18]. In addition, the GI50 in assay [19] was 35.6 µM (inactive).

`CCOC(=O)CCSS(=O)(=O)C(F)(F)F`: the GI50 is > 100 µM (inactive) in assay [1]; > 100 µM (inactive) in [2]; > 100 µM (inactive) in assay [4]; > 100 µM (inactive) in [6]; > 100 µM in assay [7]; > 100 µM (inactive) in [8]. The GI50 in assay [9], in [11], in assay [12], in assay [13], in [14] and in assay [15] was > 100 µM (inactive) each time. Also, the GI50 in assay [16], in [17], in assay [18] and in assay [19] was > 100 µM (inactive) in each case.

Take `COC(=O)C(C(=O)OC)C1CC(=O)c2c(Br)sc(Br)c21` (stereo not drawn): the GI50 is 14.1 µM (inactive) in assay [1]; 15.1 µM (inactive) in [2]; 15.4 µM (inactive) in [3]; 14.3 µM (inactive) in assay [4]; 13.6 µM (inactive) in [6]; 9.44 µM in assay [7]. Besides, the GI50 in assay [8] was 12.8 µM (inactive); in assay [9], 16.6 µM (inactive); in [10], 3.33 µM (inactive); in [11], 15.4 µM (inactive); in [20], 18.6 µM (inactive); in [12] it was 18.3 µM (inactive). Further, the GI50 was 15.2 µM (inactive) in assay [13]; 15.2 µM (inactive) in assay [14]; 16.3 µM (inactive) in assay [15]; 11.5 µM (inactive) in assay [16]; 13.5 µM (inactive) in [17]; 18.6 µM (inactive) in assay [18]. The GI50 in assay [19] is 14.5 µM (inactive).

With `O=C(O)c1cnc2c(ccc3ncc(C(=O)O)c(O)c32)c1O`, the GI50 in assay [1] was > 100 µM (inactive); in assay [2], > 100 µM (inactive); in [3], > 100 µM (inactive); in assay [5], > 100 µM (inactive); in assay [6], > 100 µM (inactive); in assay [7] it was > 100 µM. Also, the GI50 in assay [8], in [9], in assay [10], in assay [11], in [20] and in assay [12] was > 100 µM (inactive) each time. In addition, the GI50 in assay [13], in [14], in [15], in assay [16], in assay [17] and in [18] was > 100 µM (inactive) each time. In addition, the GI50 in assay [19] is > 100 µM (inactive).

Turning to `O=[N+]([O-])c1ccc(-c2nc3cc([N+](=O)[O-])ccc3[nH]2)cc1`, the GI50 was 30.5 µM (inactive) in assay [1]; 28.4 µM (inactive) in assay [3]; 50.2 µM (inactive) in [4]; 11.4 µM (inactive) in assay [5]; 31 µM (inactive) in assay [6]; 34.9 µM in assay [7]. The GI50 in assay [8] is 21.4 µM (inactive); in [9], 40.6 µM (inactive); in [10], 29.9 µM (inactive); in assay [11], 19.6 µM (inactive); in assay [20] it was 23.5 µM (inactive); in assay [12], 21.9 µM (inactive). Besides, the GI50 in assay [13] is 14.3 µM (inactive); in [14], 39.3 µM (inactive); in [15], 25.4 µM (inactive); in assay [16] it was 13.7 µM (inactive); in [17] it was 37 µM (inactive); in [18] it was 22 µM (inactive). Moreover, the GI50 in [19] was 7.66 µM (inactive).

As for `O=C(O)C1(C(O)c2ccccc2)SCCCS1` (stereo not drawn), the GI50 was > 10 µM (inactive) in assay [1]; > 10 µM (inactive) in [2]; > 10 µM (inactive) in assay [3]; > 10 µM (inactive) in assay [6]; > 10 µM in assay [7]; > 10 µM (inactive) in [8]. Besides, the GI50 in assay [9], in assay [10], in [11], in assay [20], in assay [12] and in assay [14] was > 10 µM (inactive) each time. The GI50 in assay [15], in assay [17], in assay [18] and in [19] was > 10 µM (inactive) in each case.

With `O=C1CC(=O)c2c(O)cc(O)c(c2O)-c2c(ccc(O)c2O)C2=CC(=O)c3c(O)cc(O)c(c3O2)-c2c1ccc(O)c2O.O=C1CC2(O)Oc3c1c(O)cc(O)c3-c1c(ccc(O)c1O)-c1cc(=O)c3c(O)cc(O)c(c3o1)-c1c2ccc(O)c1O`, the GI50 is > 50 µM (inactive) in assay [1]; > 50 µM (inactive) in [2]; > 50 µM (inactive) in [3]; > 50 µM (inactive) in [4]; > 50 µM (inactive) in assay [6]; > 50 µM in assay [7]. Further, the GI50 in assay [8], in assay [9], in [10], in assay [11], in [20] and in assay [12] was > 50 µM (inactive) in each case. Further, the GI50 in assay [13], in assay [14], in [15], in [17], in [18] and in assay [19] was > 50 µM (inactive) throughout.

On to `CC(=O)O[C@@H]1[C@H]2[C@@H](OC(=O)c3ccccc3)[C@@H](C)C[C@]2(O)[C@H](OC(C)=O)[C@@]2(C)[C@@H]3C[C@@](C)(OC(C)=O)C[C@@H](OC(C)=O)[C@@]3(OC(C)=O)C[C@@]12C`, for which the GI50 in [1] was > 10 µM (inactive); in assay [2] it was > 10 µM (inactive); in [4] it was > 10 µM (inactive); in [5], > 10 µM (inactive); in assay [6], > 10 µM (inactive); in [7], > 10 µM. Also, the GI50 in [8], in assay [10], in assay [11], in assay [20], in assay [12] and in assay [13] was > 10 µM (inactive) in each case. Further, the GI50 in [14], in assay [15], in assay [17], in assay [18] and in assay [19] was > 10 µM (inactive) in each case.

In the case of `Clc1ccc(C(SCc2ccccc2)SCc2ccccc2)cc1`, the GI50 in assay [1] was > 10 µM (inactive); in assay [3] it was > 10 µM (inactive); in assay [4], > 10 µM (inactive); in assay [5], > 10 µM (inactive); in [6], > 10 µM (inactive); in assay [7], > 10 µM. Further, the GI50 in assay [8], in [9], in [10], in assay [11], in [20] and in assay [12] was > 10 µM (inactive) throughout. The GI50 in assay [13], in assay [14], in [15], in assay [16], in assay [17] and in [18] was > 10 µM (inactive) in each case. The GI50 in assay [19] was > 10 µM (inactive).

As to `COc1cc(NC(C)CCCN)c2ncccc2c1` (stereo not drawn) [PRIMAQUINE PHOSPHATE], the GI50 was 51.4 µM (inactive) and > 88.7 µM (inactive) in [1]; > 91 µM (inactive) and > 83.4 µM (inactive) in assay [2]; 37.1 µM (inactive) and 28.8 µM (inactive) in assay [3]; 28.2 µM (inactive) and 16.9 µM (inactive) in assay [4]; 90.6 µM (inactive) and 52.1 µM (inactive) in assay [5]; 16.4 µM (inactive) in assay [6]. The GI50 in assay [8] is > 100 µM (inactive) and > 90.6 µM (inactive); in assay [10], 25.2 µM (inactive) and 39.4 µM (inactive); in assay [20], > 100 µM (inactive); in assay [13], 17.8 µM (inactive) and 32.5 µM (inactive); in assay [14], > 66.1 µM (inactive) and 77.3 µM (inactive); in assay [16], 42.8 µM (inactive) and 22.6 µM (inactive).
